Measured values published in patent US6936266B2, “Desquamation/epidermal renewal of the skin and/or combating skin aging” (L'Oreal, priority 1998, dated 2005).

Test system: differentiated human keratinocytes
Assay: in vitro screening of an active agent on desquamation (release of corneocytes, cellular detachment index by flow cytometry)
Format: cell-based
Conditions: for % of activity relative to the control (cellular detachment index, difference between T60 and T0): compounds at 5 × 10^−5M, 60 minutes after addition, control = identical culture in the absence of compound
Protocol: This test of in vitro screening of an active agent on desquamation was carried out on differentiated human keratinocytes. The principle of the test was based on the fact that desquamation induces the release of corneocytes. The desquamating power of the product tested will be proportionately greater the larger the number of corneocytes released.
The test procedure was as follows: starting with human skin biopsies, the keratinocytes obtained by separation of the epidermis were dissociated by enzymatic action with trypsin and were cultured at a concentration of 2×10^5 cells/ml. Growth and differentiation of the keratinocytes were obtained by culturing for 10 to 20 days in a specific medium. Next, after removing the culture medium, the activity of the test product was evaluated. To do this, two samples were taken at T0 and T60, i.e., just before adding the product and 60 minutes after this addition. The samples thus taken were analyzed with a flow cytometer in order to count the corneocyte population. The flow cytometer made it possible to distinguish the corneocyte and keratinocyte populations by treatment with acridine orange, which is specific for cellular DNA.
The cellular detachment index was determined by the difference between T60 and T0.
The test was carried out with cinnamic acid at a concentration of 5×10^−5M.
The results are given as a % of activity relative to the control consisting of an identical culture in the absence of compound.

In the case of CCCCCCCC(=O)c1ccc(O)c(C(=O)O)c1 [Reference, 2-hydroxy-5-octanoylbenzoic acid, reference compound], the “% of activity relative to the control (cellular detachment index, difference between T60 and T0)” value is reported as 96.6%.
In the case of O=C(O)C=Cc1ccccc1 [Cinnamic acid], the “activity on the cellular detachment” value (cinnamic acid at 5×10^−5M) is reported as “high” and the “% of activity relative to the control (cellular detachment index, difference between T60 and T0)” value is reported as 59.2%.
